Results on 1 compound are retold here after article PMC8037503, “Methiothepin Increases Chemotherapy Efficacy against Resistant Melanoma Cells” (Molecules, 2021).

The test has as its target T1, Ptch1 (Homo sapiens, UniProt Q13635).
T1 construct: human Ptch1 with C-terminal His-tag, DDM-solubilized from yeast membranes
T1 sequence (Q13635 1-1447): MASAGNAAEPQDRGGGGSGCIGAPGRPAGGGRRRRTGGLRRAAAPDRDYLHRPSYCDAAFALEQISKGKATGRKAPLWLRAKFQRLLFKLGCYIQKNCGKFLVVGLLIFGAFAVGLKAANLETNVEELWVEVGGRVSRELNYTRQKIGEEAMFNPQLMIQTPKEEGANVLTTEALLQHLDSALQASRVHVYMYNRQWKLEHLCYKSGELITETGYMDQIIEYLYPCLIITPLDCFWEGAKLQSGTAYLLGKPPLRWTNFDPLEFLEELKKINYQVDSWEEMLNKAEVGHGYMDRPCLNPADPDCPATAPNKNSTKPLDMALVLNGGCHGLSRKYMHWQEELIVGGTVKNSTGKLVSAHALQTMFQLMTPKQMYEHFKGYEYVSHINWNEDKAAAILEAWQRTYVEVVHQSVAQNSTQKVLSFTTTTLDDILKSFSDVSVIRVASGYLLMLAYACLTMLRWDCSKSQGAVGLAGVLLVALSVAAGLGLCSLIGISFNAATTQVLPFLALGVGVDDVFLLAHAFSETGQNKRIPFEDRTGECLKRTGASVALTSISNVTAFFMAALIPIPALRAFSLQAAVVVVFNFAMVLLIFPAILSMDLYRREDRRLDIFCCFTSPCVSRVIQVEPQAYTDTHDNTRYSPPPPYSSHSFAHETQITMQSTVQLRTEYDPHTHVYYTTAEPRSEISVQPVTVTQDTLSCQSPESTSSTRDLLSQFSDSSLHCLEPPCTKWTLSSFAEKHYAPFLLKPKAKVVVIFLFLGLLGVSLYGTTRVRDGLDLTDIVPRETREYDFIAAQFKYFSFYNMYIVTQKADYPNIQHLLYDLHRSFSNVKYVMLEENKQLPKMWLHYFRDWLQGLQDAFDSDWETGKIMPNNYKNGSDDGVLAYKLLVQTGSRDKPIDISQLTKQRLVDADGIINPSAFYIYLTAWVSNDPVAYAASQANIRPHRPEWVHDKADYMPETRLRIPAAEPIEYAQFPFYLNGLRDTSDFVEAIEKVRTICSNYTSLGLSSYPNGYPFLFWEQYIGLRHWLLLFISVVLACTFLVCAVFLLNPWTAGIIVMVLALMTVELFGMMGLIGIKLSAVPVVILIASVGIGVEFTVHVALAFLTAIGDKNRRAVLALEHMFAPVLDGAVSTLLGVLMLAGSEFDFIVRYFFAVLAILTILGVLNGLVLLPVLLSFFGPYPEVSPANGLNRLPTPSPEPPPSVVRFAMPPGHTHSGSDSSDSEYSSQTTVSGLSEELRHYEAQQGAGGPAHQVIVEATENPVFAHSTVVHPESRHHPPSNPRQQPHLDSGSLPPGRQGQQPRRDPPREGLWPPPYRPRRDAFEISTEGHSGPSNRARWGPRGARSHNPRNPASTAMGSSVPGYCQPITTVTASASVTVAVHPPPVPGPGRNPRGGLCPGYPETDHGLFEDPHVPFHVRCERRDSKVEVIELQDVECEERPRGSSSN
The test can be described thus: microscale thermophoresis on DDM-solubilized membranes from yeast expressing human Ptch1 (His-tag labelled). It counts as binding.

The Kd is the constant that tells how readily two partners part at equilibrium. A lower Kd goes with tighter binding. Turning to `CSc1ccc2c(c1)C(N1CCN(C)CC1)Cc1ccccc1S2` (stereo not shown) [P375, methiothepin], the Kd is about 7 µM.
